Like-named read-outs stand apart in the source and are kept apart here.
Columns and labels:
[1] = Pilot pharmacokinetic study in mice; format: in vivo, mouse; settings: for AUC(0-t): read-out: AUC0-24
Protocol: To establish a standard assay for RC16 detection and the half-life of RC16 in murine blood, a basic pilot pharmacokinetic study was performed using 1 animal per timepoint. Non-tumor bearing, female, athymic nude mice were treated with RC16 by i.v. or p.o.at doses of 1 mg/kg and 2 mg/kg, respectively. At 2, 4, 6, 12, 24 and 48 h post RC16 administration, a single mouse was anesthetized in an induction chamber with 5.0% isoflurane and an O2 flow rate of 0.8 L/min. Each mouse was transferred to a nose cone supplying 5.0% isoflurane with a O2 flow rate of 0.8 L/min. After confirming sedation by testing hind footpads, each mouse was subjected to exsanguination by cardiac puncture. Blood samples were collected in BD Microtainers (BD, Franklin Lakes, NJ). Plasma was separated by centrifugation at 2000×g for 10 min at 4°C and stored at −80°C until analysis. The RC16 concentration in plasma was determined by liquid LC-MS/MS.
Chromatographic separation was achieved using a Thermo Scientific Accela UHPLC system with HTS PAL autosampler and an Agilent ZORBAX Extend C18 column (50 × 2.1 mm I.D, 3.5 μm particle size) with a C18 guard cartridge maintained at 35°C. A 6.0 min linear gradient program with water/0.3% formic acid as mobile phase A and acetonitrile/0.3% formic acid as mobile phase B at a constant flow rate of 400 μL/min was applied for elution: 0.0 min 25% B, 1.0 min 25% B, 3.0 min 95% B, 4.5 min 95% B, 4.6 min 25% B and 6.0 min 25% B. The autosampler sample draw was set to 4°C, and a divert valve was used (0.0–2.0 min) to prevent early eluting compounds from entering the MS. Selective reaction monitoring with unit resolution was used for MS detection under positive mode. Transition channels from the protonated molecular ion to selected product ion were 377.33 > 153.15 for RC16 and 251.20 > 153.15 for internal standard RC7, respectively. Parameters optimized with a direct infusion of analyte and IS using a syringe pump were as follows: spray voltage, 5000 V; sheath gas and auxiliary gas, 25 and 15 (arbitrary unit), respectively; capillary temperature, 325°C; collision gas pressure, 1.5mTorr and skimmer offset, 10 eV. Tube lens offset was 100 eV for both RC16 and RC7, respectively. Scan time was 0.03 s. Collision energies were 40 eV for RC16 and 33 eV for RC7. Thermo Scientific LCQuan software was employed for system control and data processing.

MDA-MB-231 = assay: MTT cell proliferation assay, MDA-MB-231; format: cell-based; settings: Homo sapiens, MDA-MB-231, adult tumor cell line, read-out: Cell killing activity IC50
Protocol: (§1) Cells were plated in 96-well tissue culture plates at a density of 1 × 10^3 cells/well, allowed to attach 24 h, and then left untreated or treated with growth medium containing different concentrations of the tested RCn compounds previously dissolved in PBS. After different time periods the cell vitality was determined by MTT assay according to the manufacture’s instruction (Promega). Results are reported as the micromolar concentration of RCn reducing cell survival to 50% (IC50).

Ramos = assay: MTT cell proliferation assay, Ramos; format: cell-based; settings: Homo sapiens, Lymphoma, read-out: Cell killing activity IC50
Protocol: as §1

[2] = system: pediatric tumor cell lines; assay: MTT cell killing, pediatric tumor cell lines (summary); format: cell-based; settings: Table I
Protocol: as §1

[3] = system: human keratinocytes, human fibroblasts and HUVEC; assay: MTT cell killing, normal versus tumor cells (summary); format: cell-based
Protocol: as §1

S462TY = assay: MTT cell proliferation assay, S462TY; format: cell-based; settings: Homo sapiens, Malignant Peripheral Nerve Sheath Tumor, read-out: Cell killing activity IC50
Protocol: as §1

S462.TY cells = assay: Interaction of RC16 with sialic acid (MTT); format: cell-based, human; settings: 24 h
Protocol: Neuraminidase was used to cleave the sialic acid residues from the polysialilated glycoproteins and gangliosides of the tumor cell surface and the anticancer activity of RC16 was subsequently tested in comparison with the cells not exposed to Neuraminidase. Cells were seeded on 96 well plates at a density of 2 × 10^4 cells /plate and after 24 h were exposed to 50 IU/mL Neuraminidase Type VI from Clostridium Perfrigens (Sigma) for 3 h. Cells were washed 3 times with PBS and afterwards treated with RC16 . The effect on cell number was evaluated after 24 h by MTT assay in comparison with cells not treated with Neuraminidase. The RC16 –sialic acid interaction was also evaluated by adding sialic acid to the culture medium in stoichiometric amount with respect to RC16. In this experiment cells seeded on 96 well plates at a density of 2 × 10^4 cells /plate and after 24 h were treated with a mixture of RC16 : sialic acid (3 μM : 3 μM). After 24 h the effect on cell number was evaluated by MTT assay in comparison with cells treated with pure RC16 or pure sialic acid at the same concentration (3 μM) of the mixture.

Rh41 = assay: MTT cell proliferation assay, Rh41; format: cell-based; settings: Homo sapiens, Rh41, Rhabdomyosarcoma, read-out: Cell killing activity IC50
Protocol: as §1

HUVEC = assay: MTT cell proliferation assay, HUVEC; format: cell-based; settings: Homo sapiens, normal cells, read-out: Cell killing activity IC50
Protocol: as §1

SMILES: CCCCCCCCCCCCCCC1CN2CCCN3CCCCCC132 (centres unmarked) [RC16, 2-tetradecyl-4,8-diazatricyclo[6.5.0.0^1,^4]tridecane]
- half-life ([1]; female, athymic nude, mouse, plasma, iv, 1 mg/kg i.v., nude mice, read-out: Half-life (converted)): 5.4 h
- bioavailability ([1]; female, athymic nude, mouse, plasma, po, 2 mg/kg, estimated from pilot pharmacokinetic data): ~6%
- Cmax ([1]; female, athymic nude, mouse, plasma, 2 mg/kg oral, at 4 h, nude mice, read-out: Maximum observed plasma concentration (Cmax)): 12.5 ng/mL
- half-life ([1]; female, athymic nude, mouse, plasma, 2 mg/kg oral, non-compartmental analysis, nude mice, read-out: Apparent half-life (converted)): 5.2 h
- AUC(0-t) ([1]; female, athymic nude, mouse, plasma, IV, 1 mg/kg, nude mice): 1390 ng·h/mL
- Cmax ([1]; female, athymic nude, mouse, plasma, IV, 1 mg/kg, nude mice, read-out: Cmax): 153 ng/mL
- AUC(0-t) ([1]; female, athymic nude, mouse, plasma, PO, 2 mg/kg, nude mice): 160 ng·h/mL
- concentration at 2 h ([1]; female, athymic nude, plasma, intravenous, 1 mg/kg i.v., 2 h, nude mice, 1 mouse per time point): 153 ng/mL
- concentration at 24 h ([1]; female, athymic nude, plasma, intravenous, 1 mg/kg i.v., nude mice, 1 mouse per time point): 11.4 ng/mL
- concentration at 24 h ([1]; female, athymic nude, plasma, 2 mg/kg oral, nude mice, 1 mouse per time point): 0.5 ng/mL
- concentration at 48 h ([1]; female, athymic nude, plasma, 2 mg/kg oral, 48 h, nude mice, 1 mouse per time point): 4.6 ng/mL
- Achieved plasma concentrations ([1]; i.v. dose of 1 mg/kg): 150 to 200 ng/mL
- IC50 (MDA-MB-231; 24 h): 2.96 µM
- IC50 (MDA-MB-231; 48 h): 1.67 µM
- IC50 (Ramos; 24 h): 0.1 µM
- IC50 (Ramos; 48 h): 0.04 µM
- Cell killing (qualitative) [2]: most active
- IC50 for normal cells relative to tumor cells [3]: more than tenfold higher
- IC50 (S462TY; 24 h): 1.11 µM
- IC50 (S462TY; 48 h): 0.76 µM
- Anticancer activity after Neuraminidase pre-treatment of cells (S462.TY cells; RC16 3 μM, versus cells not exposed to Neuraminidase): decreased the anticancer activity of RC16
- Anticancer activity with sialic acid added to culture medium (S462.TY cells; RC16 : sialic acid 3 μM : 3 μM, versus pure RC16): decreased the RC16 anticancer activity
- IC50 (Rh41; 24 h): 0.25 µM
- IC50 (Rh41; 48 h): 0.15 µM
- IC50 (HUVEC; 24 h): 10.6 µM
- IC50 (HUVEC; 48 h): 9.65 µM

— publication PMC5040747, “Preparation and Evaluation of a Novel Class of Amphiphilic Amines as Antitumor Agents and Nanocarriers for Bioactive Molecules” (Pharmaceutical Research, 2016)
